Assay results reported in PMC11618496, “SHIV remission in macaques with early treatment initiation and ultra long-lasting antiviral activity” (Nature Communications, 2024).
Several values for one entry are separate records, joined by “and”; a condition that tells them apart may be missing. Identical values can stand only once.

Tests used:
[1] = for median concentration in PBMCs during the entire treatment period: eART + VES group; for median (range) concentration in PBMCs, period of full adherence / median (range) concentration in PBMCs, period of suboptimal adherence: eART group; for median (range) concentration in PBMCs, period of full adherence: months 0–3.5, 24 h post-dosing, oral FTC/TAF; for median (range) concentration in PBMCs, period of suboptimal adherence: months 3.5 to 6
Protocol: (§1) RT-SHIV was selected for the study since it contains the HIVHXBc2 RT that is sensitive to RPV. RT-SHIV was obtained through the NIH AIDS Reagent Program, Division of AIDS, NIAID, NIH[17]–[19]. The stock was maintained in liquid nitrogen in individual 1 mL aliquots until use. […] CAB LA and RPV LA were obtained from ViiV Healthcare and Janssen, respectively. […] CAB LA (50 mg/kg) and RPV LA (200 mg/kg) were given intramuscularly once a month[27],[45]. The macaque used in the terminal PK study received CAB LA (50 mg/kg) and RPV LA (200 mg/kg) from Cabenuva®.
(§2) PBMCs were isolated from blood collected in BD Vacutainer® CPT™ Sodium Citrate Cell Preparation Tubes, and red blood cells were lysed with BioLegend RBC lysis buffer. Cell counts and viability were determined using a Guava Cell Counter and Cytosoft data acquisition and analysis software (version 6.02; Millipore Billerica, MA) or a Countess (Invitrogen). Three million viable cells were pelleted, washed with 1 mL of physiological saline, and resuspended in 500 µl ice-cold 80% methanol. Samples were vortexed for 1 min and immediately frozen at − 70 °C. Prior to analysis, cellular debris was pelleted, and supernatants were transferred to new tubes. Supernatants were dried down and reconstituted in 100 μl of 50 mM ammonium acetate buffer (pH 7.0), then centrifuged at 17,000 × g to remove insoluble particulates. […] Calibration curves were generated from serially diluted standards over the range from 0.25 to 10 nM.

[2] = cited from earlier work; for median trough concentration in human PBMCs: reviewer comment, 25mg TAF dose ref 12
[3] = Intracellular TFV-DP and FTC-TP in lymph node mononuclear cells and rectal tissues; settings: lymph node mononuclear cells from axillary or inguinal lymph nodes
[4] = CAB and RPV concentrations in macaque plasma; assay type: in vivo, Rhesus macaques; settings: for median plasma levels during the treatment phase: macaques, monthly IM CAB LA 50 mg/kg and RPV LA 200 mg/kg; for plasma concentration, individual macaques: matched to CSF samples; for concentration at 4 weeks: matched to CSF: ~ 6 months of treatment, 4 weeks after the previous CAB LA/RPV LA injection, read-out: Plasma, median (range)
Protocol: Plasma concentrations of CAB were measured weekly.

[5] = Extracellular TFV, FTC, CAB and RPV in rectal tissue homogenates; assay type: in vivo, Rhesus macaques; settings: collected after 1 to 3 months of ART
Protocol: (§3) A cocktail of methanol containing internal standards was added to precipitate proteins. After a brief centrifugation and removal of protein precipitates, the supernatant was evaporated to near dryness and re-suspended with mobile phase A. An aqueous-acetonitrile mobile-phase gradient was used to elute the drugs from a C18 column (100*1 mm, Imtakt) and into the analyzer. Drug concentrations were calculated from a standard curve with a range of 0.5–2000 ng/mL using Analyst software. […] Plasma concentrations of CAB were measured weekly. Plasma concentrations of RPV were measured 4 (9 observations), 2 (2 observations), or 3 (2 observations) weeks after the previous injection. The concentrations of RPV in plasma, CSF, and tissues and the concentrations of CAB in CSF were measured at the Clinical Pharmacology and Analytical Chemistry (CPAC) Laboratory, University of North Carolina Center for AIDS Research. The LOQ for RPV in plasma is 1 ng/mL.

[6] = Drug concentrations in cerebrospinal fluid (CSF); assay type: in vivo, Rhesus macaques; settings: for Kp at 4 weeks: CSF and plasma, read-out: CSF-to-plasma ratio; for concentration at 4 weeks: CSF
Protocol: as §3

in vivo = settings: female, rhesus monkey
Protocol: as §1, §3

[7] = cited from earlier work; for plasma levels in humans: 400 mg of CAB LA or 600 mg of RPV LA every month for 48 weeks ref 21; for apparent terminal elimination half-life: humans, single intramuscular injection ref 16
[8] = no reference given; cited from earlier work
[9] = no reference given; cited from earlier work; remark: listed apart in the source
[10] = parameters: method as in Letendre; settings: 7-10 days after injection ref Letendre; cited from earlier work
reverse transcriptase = settings: Rectal
Protocol: as §2

[11] = rhesus monkey, in vivo
[12] = rhesus monkey, plasma, intramuscular
[13] = rhesus monkey, intramuscular, 4 weeks after dosing (author rebuttal), read-out: macaque CSF values, approximate
[14] = rhesus monkey, other: oral (FTC) and intramuscular (CAB LA), ~ 6 months of treatment, 4 weeks after the previous CAB LA/RPV LA injection, read-out: CSF, median (range)
[15] = ~ 6 months of treatment, 4 weeks after the previous CAB LA/RPV LA injection
[16] = Tissue concentration, Axillary lymph nodes
[17] = Tissue concentration, Basal ganglia
[18] = Tissue concentration, Cerebellum
[19] = Tissue concentration, Cervical lymph nodes
[20] = Tissue concentration, Iliac lymph nodes
[21] = Tissue concentration, Inguinal lymph nodes
[22] = Tissue concentration, Mesenteric lymph nodes
[23] = Tissue concentration, Spinal cord
[24] = median concentration in brain tissues
[25] = median concentration in lymphoid tissues
[26] = median concentration in the GI tract

## CC(Cn1cnc2c(N)ncnc21)OCP(=O)(O)OP(=O)(O)OP(=O)(O)O (stereo in doubt) [TFV-DP, tenofovir diphosphate]
[1]; comparison with ref 10
  fold higher concentrations in PBMCs and lymphoid tissues than achieved with TDF: about 10
[1]
  median concentration in PBMCs during the entire treatment period: 1162 fmols/10^6 PBMCs
  median (range) concentration in PBMCs, period of full adherence: 1753 (275–2809) fmols/10^6 PBMCs
  median (range) concentration in PBMCs, period of suboptimal adherence: 329 (63–1688) fmols/10^6 PBMCs
[1]; full adherence vs humans treated with 25 mg of TAF
  times higher in PBMCs than in humans: about 3.2
[2]
  median trough concentration in human PBMCs: 523 fmol/10^6 cells
[3]
  Lymph nodes, median (range): 367 (142–620) fmol/10^6 cells

## C[C@H]1CO[C@@H]2Cn3cc(C(=O)NCc4ccc(F)cc4F)c(=O)c(O)c3C(=O)N12 [CAB, cabotegravir]
[4]
  median plasma levels during the treatment phase: 2400 ng/mL
  plasma concentration, individual macaques: 1040 ng/mL and 1050 ng/mL and 630 ng/mL and 480 ng/mL
[4]; [12]
  decline of plasma concentration below the PA-IC90 after the last injection: declined below the PA-IC90 two months later
  times plasma level above the PA-IC90 during treatment: 13
  concentration at 4 weeks: 835 ng/mL
[5]
  Rectal tissues, extracellular drug, median (range): 0.60 (0.25–2.65) ng/mg of tissue
[6]; rhesus monkey, intramuscular
  Kp at 4 weeks: 0.006
[6]; [13]
  concentration at 4 weeks: ~6 ng/mL
[6]; [14]
  concentration at 4 weeks: 5.95 ng/mL
[6]; [15]
  CSF, median (range): 5.95 (4.77–7.43) ng/mL
In vivo; 3 weeks
  times brain tissue concentration above the in vitro EC90: ~ 100
In vivo; [16]
  concentration at 3 weeks: 412 ng/g
In vivo; [17]
  concentration at 3 weeks: 26 ng/g
In vivo; Tissue concentration, Cecum
  concentration at 3 weeks: 1370 ng/g
In vivo; [18]
  concentration at 3 weeks: 58 ng/g
In vivo; [19]
  concentration at 3 weeks: 583 ng/g
In vivo; Tissue concentration, Duodenum
  concentration at 3 weeks: 569 ng/g
In vivo; Tissue concentration, Ileum
  concentration at 3 weeks: 695 ng/g
In vivo; [20]
  concentration at 3 weeks: 1280 ng/g
In vivo; [21]
  concentration at 3 weeks: 975 ng/g
In vivo; Tissue concentration, Jejunum
  concentration at 3 weeks: 643 ng/g
In vivo; [22]
  concentration at 3 weeks: 23700 ng/g
In vivo; Tissue concentration, Rectum
  concentration at 3 weeks: 773 ng/g
In vivo; [23]
  concentration at 3 weeks: 288 ng/g
In vivo; [24]
  concentration at 3 weeks: 58 ng/g
In vivo; [25]
  concentration at 3 weeks: 975 ng/g
In vivo; [26]
  concentration at 3 weeks: 695 ng/g
[7]
  plasma levels in humans: 2740 ng/mL
  apparent terminal elimination half-life: 39 to 80 days
[8]
  protein-adjusted 90% inhibitory concentration (PA-IC90): 166 ng/mL
[9]
  in vitro EC90: 0.34 ng/mL
[10]
  human CSF levels: ~10 ng/mL

## Nc1nc(=O)n([C@@H]2CS[C@H](CO)O2)cc1F [FTC, emtricitabine]
[5]
  Rectal tissues, extracellular drug, median (range): 1.48 (0.22–2.16) ng/mg of tissue
[6]; [14]
  concentration at 4 weeks: 2.36 ng/mL
[6]; [15]
  CSF, median (range): 2.36 (BLQ-2.65) ng/mL

## Nc1nc(=O)n([C@@H]2CS[C@H](COP(=O)(O)OP(=O)(O)OP(=O)(O)O)O2)cc1F [FTC-TP, emtricitabine triphosphate]
[1]
  median concentration in PBMCs during the entire treatment period: 553 fmols/10^6 PBMCs
  median (range) concentration in PBMCs, period of full adherence: 573 (333–1528) fmols/10^6 PBMCs
  median (range) concentration in PBMCs, period of suboptimal adherence: 306 (undetectable-964) fmols/10^6 PBMCs
[1]; full adherence vs humans treated with 300 mg of FTC
  fold lower in PBMCs than in humans: approximately 3.6
Reverse transcriptase
  Panel F ratio dCTP/FTC-TP: 82.22 and 103.48
[11]
  Rectal tissues, intracellular, median (range): BLQ (BLQ-17)
[2]; humans treated with 25 mg of TAF (TFV-DP) or 300 mg of FTC (FTC-TP) ref 12
  concentration in human PBMCs: 2,060 fmols/10^6 PBMCs
[2]; reviewer comment ref 12
  median peak concentration in human PBMCs: 5149 fmol/10^6 cells
[2]
  median trough concentration in human PBMCs: 2060 fmol/10^6 cells

## Cc1cc(/C=C/C#N)cc(C)c1Nc1ccnc(Nc2ccc(C#N)cc2)n1 [RPV, rilpivirine]
[4]
  median plasma levels during the treatment phase: 108 ng/mL
  plasma concentration, individual macaques: 143 ng/mL and 152 ng/mL and 150 ng/mL and 153 ng/mL
[4]; [12]
  persistence in plasma after the last dose: 2 years
  concentration at 4 weeks: 151 ng/mL
[5]
  Rectal tissues, extracellular drug, median (range): 0.45 (0.12–1.1) ng/mg of tissue
[6]; rhesus monkey, intramuscular
  Kp at 4 weeks: 0.028
[6]; [13]
  concentration at 4 weeks: ~4 ng/mL
[6]; [14]
  concentration at 4 weeks: 4.06 ng/mL
[6]; rhesus monkey, in vivo
  times CSF-to-plasma ratio higher than for CAB: 4
[6]; [15]
  CSF, median (range): 4.06 (2.93–4.52) ng/mL
In vivo; 3 weeks
  times brain tissue concentration above the in vitro EC90: ~ 500
  times median brain tissue concentration higher than that of CAB: 5.8
In vivo; [16]
  concentration at 3 weeks: 773 ng/g
In vivo; [17]
  concentration at 3 weeks: 340 ng/g
In vivo; Tissue concentration, Cecum
  concentration at 3 weeks: 670 ng/g
In vivo; [18]
  concentration at 3 weeks: 259 ng/g
In vivo; [19]
  concentration at 3 weeks: 1770 ng/g
In vivo; Tissue concentration, Duodenum
  concentration at 3 weeks: 666 ng/g
In vivo; Tissue concentration, Ileum
  concentration at 3 weeks: 518 ng/g
In vivo; [20]
  concentration at 3 weeks: 736 ng/g
In vivo; [21]
  concentration at 3 weeks: 692 ng/g
In vivo; Tissue concentration, Jejunum
  concentration at 3 weeks: 697 ng/g
In vivo; [22]
  concentration at 3 weeks: 28800 ng/g
In vivo; Tissue concentration, Rectum
  concentration at 3 weeks: 447 ng/g
In vivo; [23]
  concentration at 3 weeks: 437 ng/g
In vivo; [24]
  concentration at 3 weeks: 340 ng/g
In vivo; [25]
  concentration at 3 weeks: 773 ng/g
In vivo; [26]
  concentration at 3 weeks: 666 ng/g
[7]
  plasma levels in humans: 97.5 ng/mL
  apparent terminal elimination half-life: 91 to 196 days
[8]
  protein-adjusted 90% inhibitory concentration (PA-IC90): 12 ng/mL
[9]
  in vitro EC90: 0.66 ng/mL
[10]
  human CSF levels: ~ 2 ng/ml

## CC(C)OC(=O)[C@H](C)N[P@](=O)(CO[C@H](C)Cn1cnc2c(N)ncnc21)Oc1ccccc1 [TAF, tenofovir alafenamide]
[2]
  fold higher concentrations of TFV-DP in lymphoid tissues and PBMCs over TDF: ~ 6

## C[C@H](Cn1cnc2c(N)ncnc21)OCP(=O)(O)O [TFV, tenofovir]
[5]
  Rectal tissues, extracellular drug, median (range): 0.64 (0.18–0.87) ng/mg of tissue
[6]; [15]
  CSF, median (range): not detected and BLQ
